The record followed here is patent EP0976707A1, “CYCLOALKYL BENZYL ETHER COMPOUNDS” (Nissan Chemical Industries, Ltd., priority 1997, dated 1998).

Common to all, as to assay: Comparative test, pre-emergence treatment under submerged conditions (as Test Example 1)
Type in all cases: in vivo
What all share (parameters): key: 0 indicating no influence; 5 indicating complete withering

The test system of data set [1] is transplanted rice. As to conditions: pre-emergence treatment to weeds, three weeks after the treatment, rating 0-5. The source says: (§1) [Test Example 1] Herbicidal effect test by pre-emergence treatment to weeds under submerged conditions
(§2) In a 1/10,000-are Wagner pot was filled alluvial soil, which was mixed with water introduced therein to establish submerged conditions at a water depth of 4 cm. Respective seeds of Echinochloa crus-galli var. crus-galli, Monochoria vaginalis, Rotala indica and Scirpus juncoides were sowed mixedly in the pot and then 2.5 leaf stage rice seedlings were transplanted. The pot was placed in a greenhouse at 25 to 30°C to grow the plant. One day after the sowing, the compound of the present invention prepared according to one of Composition Examples was applied onto the water surface at a predetermined application rate. Three weeks after the treatment, the herbicidal effect on the rice plant and each kind of the weeds was examined. There was used five rating evaluation, with 0 indicating no influence and 5 indicating complete withering.
(§3) [drawing 170] (diastreomer-(1) and (2)) involved in the claims of WO 97/02258 and the compound No. A-5 of the present invention were carried out in manners similar to that in test example 1 and 2.

In data set [2] the test system is Monochoria vaginalis. As to conditions: three weeks after the treatment, rating 0-5.
Description: as §1, §2, §3

Data set [3] deals with Echinochloa crus-galli var. crus-galli. As to conditions: three weeks after the treatment, rating 0-5.
Description: as §1, §2, §3

The test system of data set [4] is Rotala indica. As to conditions: three weeks after the treatment, rating 0-5.
Description: as §1, §2, §3

Data set [5] has as its system Scirpus juncoides. As to conditions: three weeks after the treatment, rating 0-5.
Description: as §1, §2, §3

As for `C=C(C)[C@@H]1C[C@@H]2O[C@]2(C)[C@H](OCc2ccccc2F)C1` [A-5, (1S, 2R, 4S, 6S)-2-(2-fluorobenzyloxy)-4-isopropenyl-1-methyl-7-oxabicyclo[4.1.0]heptane], the “herbicidal effect, a (transplanted rice)” value in data set [1] (dosage 12.5 g/ha), in data set [1] (dosage 50 g/ha) and in data set [1] (dosage 200 g/ha) was 0 throughout. Further, the “herbicidal effect, C (Monochoria vaginalis)” value was found to be 2 in data set [2] (dosage 12.5 g/ha), 5 in data set [2] (dosage 50 g/ha) and 5 in data set [2] (dosage 200 g/ha). For the same compound, the “herbicidal effect, A (Echinochloa crus-galli var. crus-galli)” value in data set [3] (dosage 12.5 g/ha), in data set [3] (dosage 50 g/ha) and in data set [3] (dosage 200 g/ha) was 5 throughout. Besides, the “herbicidal effect, D (Rotala indica)” value turned out to be 2 in data set [4] (dosage 12.5 g/ha), 5 in data set [4] (dosage 50 g/ha) and 5 in data set [4] (dosage 200 g/ha). Besides, the “herbicidal effect, B (Scirpus juncoides)” value is recorded as 2 in data set [5] (dosage 12.5 g/ha), 3 in data set [5] (dosage 50 g/ha) and 5 in data set [5] (dosage 200 g/ha).
